Results as given in patent publication US11723934B2, “Compositions and methods for the induction of CD8+ T-cells” (Keio University, priority 2018, dated 2023).
Entries after “also recorded” stand apart in the source; their conditions may differ.

System: IFN+CD8+ T cells
Test: GF mice inoculated with human faecal samples or mouse B5 caecal contents, with or without antibiotics
Assay type: in vivo
Settings: antibiotics via drinking water or chloroform-treated caecal contents
Description: Next, it was investigated whether the human gut microbiota contained microbes which were able to induce IFN+CD8+ T cells (FIG. 4). Stool samples were collected from six healthy human volunteers (A˜F) (FIG. 5). The samples were individually administered orally into germ free […] mice kept in sterile isolators (five or six mice per group). Four weeks after oral inoculation of stool samples, mice were sacrificed, and small intestine and colons were harvested and investigated for IFN+CD8+ T-cells by FACS.
The mice were then orally administrated drinking water with or without Ampicillin, Metronidazole, Streptomycin or Tylosin (five mice per group) (FIG. 10). Alternatively, cecal contents of mouse B #5 were treated with 3% chloroform and orally inoculated into another five germ-free mice (‘B #5+Chrolo’). […] B #5 microbiota.
Human faecal samples were collected at the RIKEN institute and Keio University according to the study protocol approved by the institutional review board. Informed consent was obtained from each subject. Faecal samples and mouse B5 caecal contents were suspended in equal volume (w/v) of PBS containing 20% glycerol/PBS, snap-frozen in liquid nitrogen, and stored at −80° C. until use. The frozen stocks were thawed, suspended in TS broth, filtered through a 100 µm cell strainer, and orally inoculated into GF mice (approximately 5-60 mg/250 μL, per mouse). After 24 hours of inoculation, some mice were treated with ampicillin (1 g/L), metronidazole (1 g/L), tylosin (0.5 g/L) or streptomycin (0.5 g/L) via the drinking water. For chloroform treatment of B5 caecal contents, the caecal content suspension was mixed with chloroform (final concentration 3%) and incubated in a shaking water bath for 60 min followed by evaporation of chloroform via bubbling with N2 gas for 30 min. To isolate IFN+[…] T cell-inducing bacterial strains, caecal contents from GF+B5-Amp2 and GF+B5-Amp3 mice were serially dilated with PBS and seeded onto nonselective and selective agar plates (GAM, CM0151, and BBE). After culture under anaerobic conditions (80% N2, 10% H2, 10% CO2) in an anaerobic chamber (Coy Laboratory Products) at 37° C. for 2 to 4 days, individual colonies were picked, and the 16S rRNA gene region was amplified with universal primers (27F: 5′-[…]-3′ (SEQ ID NO:12), 1492R: 5′-[…]-3′ (SEQ ID NO:13)) and sequenced. Individual isolates in the culture collection were grouped as “strains” if their 16S rRNA gene sequences had 100% identity. The resulting strain sequences were compared to those in the RDP database and to OTUs observed in caecal samples from GF+B5−Amp2 and GF+B5−Amp3 to determine closely related species or strains and their corresponding OTUs. To prepare a bacterial mixture, bacterial strains were individually grown in GAM, CM0149, or EG both to confluence and equal volumes of media were mixed. […] The mixture of isolates was orally administered to GF mice (approximately 1-2×10^8 CFU of each strain in 250 μL medium per mouse). All mice receiving a given mixture of bacterial strains were maintained in a single gnotobiotic isolator. For administration of heat-killed bacteria, 11 strains cultured individually for 3 days were mixed, washed with autoclaved water, heat-killed at 121° C. for 30 min, and given to GF mice via the drinking water (2-10×10^7 equivalent CFU of each strain per 1 mL) for 4 weeks. C57BL/6 GF mice (6-12 weeks old) were used and analysed 3-4 weeks after bacterial colonization unless otherwise indicated.

SMILES | effect of treatment on IFN+CD8+ T cell induction by mouse B5 microbiota | effect of treatment on IFN+CD8+ T cell induction by mouse B5 microbiota (listed as Amp) | effect of treatment on IFN+CD8+ T cell induction by mouse B5 microbiota (listed as Chlo)
CC1(C)S[C@@H]2[C@H](NC(=O)[C@H](N)c3ccccc3)C(=O)N2[C@H]1C(=O)O [Ampicillin, ampicillin] | enhanced induction | enhanced the induction of IFN+CD8 T cells; also recorded: enhanced the observed induction | –
Cc1ncc([N+](=O)[O-])n1CCO [MNZ, metronidazole] | substantial decrease in IFN+CD8 T cell induction | – | –
[H]/N=C(/N)N[C@H]1[C@H](O)[C@@H](O)[C@H](O[C@@H]2O[C@@H](C)[C@](O)(C=O)[C@H]2O[C@@H]2O[C@@H](CO)[C@H](O)[C@@H](O)[C@@H]2NC)[C@@H](N/C(N)=N\[H])[C@@H]1O [STM, streptomycin] | substantial decrease in IFN+CD8 T cell induction | – | –
CC[C@H]1OC(=O)C[C@@H](O)[C@H](C)[C@@H](O[C@@H]2O[C@H](C)[C@@H](O[C@H]3C[C@@](C)(O)[C@@H](O)[C@H](C)O3)[C@H](N(C)C)[C@H]2O)[C@@H](CC=O)C[C@@H](C)C(=O)/C=C/C(C)=C/[C@@H]1CO[C@@H]1O[C@H](C)[C@@H](O)[C@@H](OC)[C@H]1OC [Tyl, tylosin] | substantial decrease in IFN+CD8 T cell induction | – | –
ClC(Cl)Cl [chloroform] | reduced the induction capability; also recorded: abrogated induction altogether | – | abrogated it altogether
